Data published in patent US9733187B2, “Method of detecting bladder cancer by optical analysis of bodily fluids” (KING SAUD UNIVERSITY, priority 2015, dated 2017).

Experiments:
[1] = Porphyrin elimination after oral administration of 5-aminolevulinic acid; format: in vivo
Protocol: The patient is administered 5-aminolevulinic acid (also referred to as 8-aminolevulinic acid), which is the first compound in the porphyrin synthesis pathway (i.e., the pathway that leads to heme in mammals). The 5-aminolevulinic acid is preferably administered orally at a dosage of approximately 5 mg of 5-aminolevulinic acid per kilogram of the patient's body weight. The patient can drink water upon taking the 5-aminolevulinic acid. The patient can wait approximately eight hours before urinating.
Approximately eight hours after oral administration of the 5-aminolevulinic acid, a bodily fluid sample is collected from the patient, and this bodily fluid sample is optically analyzed to measure a concentration of porphyrin therein. Preferably, multiple bodily fluid samples are taken at two hour intervals (i.e., one initial sample at the time of administration, and then subsequent samples taken at two hours, four hours, six hours and eight hours after administration). The bodily fluid being analyzed may be urine and/or blood.
Porphyrin is synthesized by the 5-aminolevulinic acid which is administered to the patient.

[2] = porphyrin synthesized from administered 5-aminolevulinic acid; cited from earlier work

Structure (SMILES): C1=Cc2cc3ccc(cc4nc(cc5ccc(cc1n2)[nH]5)C=C4)[nH]3 [Porphyrin, porphyrin]
- porphyrin retention time ([1]; bladder cancer patients): up to eight
- porphyrin eliminated through urine ([1]; healthy person, after four hours following administration of 5-aminolevulinic acid): approximately 90%
- half-life [2]: approximately two
